Measured values published in ChEMBL document CHEMBL1201861, “Genomics of Drug Sensitity in Cancer screening data, Wellcome Trust Sanger Institute”.

Legend:
Assay in all cases: cells
[1] = system: RVH-421; type: functional, cell-based, Homo sapiens; details: Homo sapiens, RVH-421
Description: SANGER: Inhibition of human RVH-421 cell growth in a cell viability assay.

[2] = system: SCC-9; type: functional, cell-based, Homo sapiens; details: Homo sapiens, SCC-9;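 also: Read-out is a cell viability assay, with values giving inhibition of cell growth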
[3] = system: HEC-1; type: functional, cell-based, Homo sapiens; details: Homo sapiens, HEC-1;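 also: growth inhibition of the cell line, read out with a cell viability assay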
Description: SANGER: Inhibition of human HEC-1 cell growth in a cell viability assay.

[4] = system: MKN-1; type: functional, cell-based, Homo sapiens; details: Homo sapiens, MKN-1;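 also: growth inhibition of human MKN1 cells, read out by a cell viability measurement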
Description: SANGER: Inhibition of human MKN1 cell growth in a cell viability assay.

[5] = system: NTERA-2-cl-D1; type: functional, cell-based, Homo sapiens; details: Homo sapiens, NTERA-2-cl-D1;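 also: inhibition of cell growth, measured with a cell viability assay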
Description: SANGER: Inhibition of human NTERA-S-cl-D1 cell growth in a cell viability assay.

[6] = system: NKM-1; type: functional, cell-based; details: Homo sapiens;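 also: growth inhibition of NKM-1 cells, read out with a cell viability assay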
[7] = system: EGI-1; type: functional, cell-based, Homo sapiens; details: Homo sapiens, EGI-1;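 also: cell viability readout used to gauge growth inhibition of EGI-1 cells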
Description: SANGER: Inhibition of human EGI-1 cell growth in a cell viability assay.

[8] = system: SW13; type: functional, cell-based, Homo sapiens; details: Homo sapiens, SW13;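 also: IC50 is inhibition of SW13 cell growth, read out with a cell viability assay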
Description: SANGER: Inhibition of human SW13 cell growth in a cell viability assay.

[9] = system: A101D; type: functional, cell-based, Homo sapiens; details: Homo sapiens, A101D;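 also: growth inhibition of the cell line, measured with a viability assay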
Description: SANGER: Inhibition of human A101D cell growth in a cell viability assay.

[10] = system: MHH-PREB-1; type: functional, cell-based; details: Homo sapiens;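 also: cell viability assay measuring inhibition of proliferation of human MHH-PREB-1 cells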
Description: SANGER: Inhibition of human MHH-PREB-1 cell growth in a cell viability assay.

[11] = system: Lu-65; type: functional, cell-based; details: Homo sapiens;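 also: growth inhibition of Lu-65 cancer cells, read out by a cell viability assay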
Description: SANGER: Inhibition of human LU-65 cell growth in a cell viability assay.

[12] = system: CAL-27; type: functional, cell-based, Homo sapiens; details: Homo sapiens, CAL-27;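 also: Viability-based readout, IC50 reflecting inhibition of CAL-27 cell growth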
Description: SANGER: Inhibition of human CAL-27 cell growth in a cell viability assay.

[13] = system: 8305C; type: functional, cell-based, Homo sapiens; details: Homo sapiens, 8305C
Description: SANGER: Inhibition of human 8305C cell growth in a cell viability assay.

[14] = system: KG-1; type: functional, cell-based; details: Homo sapiens;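 also: growth inhibition of KG-1 cells, read out by a cell viability assay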
[15] = system: NCI-N87; type: functional, cell-based, Homo sapiens; details: Homo sapiens, NCI-N87;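 also: growth inhibition of human NCI-N87 cells, read out with a cell viability assay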
Description: SANGER: Inhibition of human NCI-N87 cell growth in a cell viability assay.

[16] = system: HCE-T; type: functional, cell-based, Homo sapiens; details: Homo sapiens, HCE-T;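 also: cell viability assay read-out, reporting inhibition of HCE-T cell growth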
Description: SANGER: Inhibition of human HCE-T cell growth in a cell viability assay.

[17] = system: U-266; type: functional, cell-based; details: Homo sapiens
Description: SANGER: Inhibition of human U-266 cell growth in a cell viability assay.

[18] = system: SW1710; type: functional, cell-based, Homo sapiens; details: Homo sapiens, SW1710;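 also: growth inhibition of SW1710 cells, determined with a cell viability assay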
Description: SANGER: Inhibition of human SW1710 cell growth in a cell viability assay.

[19] = system: ES5; type: functional, cell-based, Homo sapiens; details: Homo sapiens, ES5;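 also: growth inhibition of human ES5 cells, read out by a cell viability assay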
[20] = system: NCI-H747; type: functional, cell-based; details: Homo sapiens;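 also: growth inhibition of human NCI-H747 cells, read out by a cell viability assay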
[21] = system: SW1463; type: functional, cell-based, Homo sapiens; details: Homo sapiens, SW1463;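 also: growth inhibition of SW1463 cells, determined with a cell viability assay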
Description: SANGER: Inhibition of human SW1463 cell growth in a cell viability assay.

[22] = system: SCC-4; type: functional, cell-based, Homo sapiens; details: Homo sapiens, SCC-4;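 also: growth inhibition of human SCC-4 cells, read out as cell viability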
Description: SANGER: Inhibition of human SCC-4 cell growth in a cell viability assay.

[23] = system: CTB-1; type: functional, cell-based; details: Homo sapiens
Description: SANGER: Inhibition of human CTB-1 cell growth in a cell viability assay.

[24] = system: no-10; type: functional, cell-based, Homo sapiens; details: Homo sapiens;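 also: growth inhibition of no-10 cells, read out with a cell viability assay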
Description: SANGER: Inhibition of human no-10 cell growth in a cell viability assay.

[25] = system: U-87 MG; type: functional, cell-based, U-87MG ATCC; details: Homo sapiens;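 also: growth inhibition of the cells measured with a viability assay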
Description: SANGER: Inhibition of human U-87-MG cell growth in a cell viability assay.

[26] = system: SAOS-2; type: functional, cell-based, Homo sapiens; details: Homo sapiens, SAOS-2;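 also: growth inhibition of human Saos-2 cells determined by a cell viability assay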
Description: SANGER: Inhibition of human Saos-2 cell growth in a cell viability assay.

[27] = system: Huh-7; type: functional, cell-based, Homo sapiens; details: Homo sapiens, Huh-7;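 also: HuH-7 cell growth inhibition, read out with a cell viability assay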
Description: SANGER: Inhibition of human HuH-7 cell growth in a cell viability assay.

[28] = system: COLO-741; type: functional, cell-based, Homo sapiens; details: Homo sapiens, COLO-741
Description: SANGER: Inhibition of human COLO-741 cell growth in a cell viability assay.

[29] = system: SHP77; type: functional, cell-based, Homo sapiens, SHP-77; details: Homo sapiens, SHP77;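 also: growth inhibition of human SHP-77 cells measured by a cell viability assay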
Description: SANGER: Inhibition of human SHP-77 cell growth in a cell viability assay.

[30] = system: EFM-19; type: functional, cell-based, Homo sapiens; details: Homo sapiens, EFM-19;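 also: growth inhibition of human EFM-19 cells, measured in a cell viability assay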
Description: SANGER: Inhibition of human EFM-19 cell growth in a cell viability assay.

[31] = system: CAMA-1; type: functional, cell-based, Homo sapiens; details: Homo sapiens, CAMA-1;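 also: growth inhibition of CAMA-1 cells, read out with a cell viability assay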
Description: SANGER: Inhibition of human CAMA-1 cell growth in a cell viability assay.

[32] = system: RXF 393; type: functional, cell-based; details: Homo sapiens;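 also: growth inhibition of human RXF 393 cells, read out with a cell viability assay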
[33] = system: HDLM-2; type: functional, cell-based; details: Homo sapiens;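 also: cell viability assay measuring suppression of HDLM-2 proliferation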
Description: SANGER: Inhibition of human HDLM-2 cell growth in a cell viability assay.

[34] = system: NCI-H2342; type: functional, cell-based; details: Homo sapiens;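 also: growth inhibition of the cancer cell line, determined with a cell viability assay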
Description: SANGER: Inhibition of human NCI-H2342 cell growth in a cell viability assay.

[35] = system: LS-513; type: functional, cell-based, Homo sapiens; details: Homo sapiens, LS-513
Description: SANGER: Inhibition of human LS-513 cell growth in a cell viability assay.

[36] = system: no-11; type: functional, cell-based, Homo sapiens; details: Homo sapiens;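 also: growth inhibition of human NO-11 cells, read out with a cell viability assay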
Description: SANGER: Inhibition of human no-11 cell growth in a cell viability assay.

[37] = system: NCI-H28; type: functional, cell-based, Homo sapiens; details: Homo sapiens, NCI-H28;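 also: growth inhibition of human NCI-H28 cells, read out as cell viability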
Description: SANGER: Inhibition of human NCI-H28 cell growth in a cell viability assay.

[38] = system: RKO; type: functional, cell-based, Homo sapiens; details: Homo sapiens, RKO;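 also: growth inhibition of human RKO cells, read out with a cell viability assay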
[39] = system: LK-2; type: functional, cell-based, Homo sapiens; details: Homo sapiens, LK-2;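 also: growth inhibition of LK-2 cells, read out with a viability assay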
Description: SANGER: Inhibition of human LK-2 cell growth in a cell viability assay.

[40] = system: MC116; type: functional, cell-based; details: Homo sapiens;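 also: growth inhibition of MC116 cells, read out with a cell viability assay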
Description: SANGER: Inhibition of human MC116 cell growth in a cell viability assay.

[41] = system: NCI-H510A; type: functional, cell-based; details: Homo sapiens;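 also: growth inhibition of NCI-H510A cells, read out with a cell viability assay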
[42] = system: NCI-H1838; type: functional, cell-based, Homo sapiens; details: Homo sapiens, NCI-H1838;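 also: growth inhibition of NCI-H1838 cells, determined with a cell viability readout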
Description: SANGER: Inhibition of human NCI-H1838 cell growth in a cell viability assay.

[43] = system: M14; type: functional, cell-based, Homo sapiens; details: Homo sapiens, M14;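 also: growth inhibition of M14 cells, read out with a cell viability assay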
Description: SANGER: Inhibition of human M14 cell growth in a cell viability assay.

[44] = system: CGTH-W-1; type: functional, cell-based, Homo sapiens; details: Homo sapiens, CGTH-W-1;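 also: growth inhibition of human CGTH-W-1 cells measured by cell viability assay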
Description: SANGER: Inhibition of human CGTH-W-1 cell growth in a cell viability assay.

[45] = system: AGS; type: functional, cell-based, Homo sapiens; details: Homo sapiens, AGS;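 also: growth inhibition of AGS cells, determined with a cell viability assay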
Description: SANGER: Inhibition of human AGS cell growth in a cell viability assay.

[46] = system: RCC10RGB; type: functional, cell-based, Homo sapiens; details: Homo sapiens, RCC10RGB;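 also: growth inhibition of human RCC10RGB cells, read out by a cell viability assay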
Description: SANGER: Inhibition of human RCC10RGB cell growth in a cell viability assay.

[47] = system: SW48; type: functional, cell-based, Homo sapiens; details: Homo sapiens, SW48;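 also: growth inhibition of SW48 cells, read out with a cell viability assay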
Description: SANGER: Inhibition of human SW48 cell growth in a cell viability assay.

[48] = system: NCI-H520; type: functional, cell-based, Homo sapiens; details: Homo sapiens, NCI-H520;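 also: growth inhibition of NCI-H520 cells, measured by a cell viability assay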
Description: SANGER: Inhibition of human NCI-H520 cell growth in a cell viability assay.

[49] = system: CaR-1; type: functional, cell-based, Homo sapiens; details: Homo sapiens, CaR-1;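 also: growth inhibition of human CaR-1 cancer cells, read out with a cell viability assay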
Description: SANGER: Inhibition of human CaR-1 cell growth in a cell viability assay.

[50] = system: BT-20; type: functional, cell-based, Homo sapiens; details: Homo sapiens, BT-20;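 also: cell viability assay measuring suppression of growth in human BT-20 cells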
Description: SANGER: Inhibition of human BT-20 cell growth in a cell viability assay.

[51] = system: NCI-H650; type: functional, cell-based, Homo sapiens; details: Homo sapiens, NCI-H650;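 also: growth inhibition of NCI-H650 cells, read out by a viability assay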
Description: SANGER: Inhibition of human NCI-H650 cell growth in a cell viability assay.

[52] = system: NCI-H1693; type: functional, cell-based, Homo sapiens; details: Homo sapiens, NCI-H1693;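 also: growth inhibition of the human cell line, read out with a cell viability assay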
Description: SANGER: Inhibition of human NCI-H1693 cell growth in a cell viability assay.

CCC1=C[C@@H]2CN(C1)Cc1c([nH]c3ccccc13)[C@@](C(=O)OC)(c1cc3c(cc1OC)N(C)[C@H]1[C@@](O)(C(=O)OC)[C@H](OC(C)=O)[C@]4(CC)C=CCN5CC[C@]31[C@@H]54)C2 [VINORELBINE]
IC50 [1]: 0.00388 µM
IC50 [2]: 0.00205 µM
IC50 [3]: 0.0227 µM
IC50 [4]: 0.0118 µM
IC50 [5]: 0.000939 µM
IC50 [6]: 0.00497 µM
IC50 [7]: > 0.064 µM
IC50 [8]: 0.00472 µM
IC50 [9]: 0.00867 µM
IC50 [10]: 0.00688 µM
IC50 [11]: 0.0245 µM
IC50 [12]: 0.032 µM
IC50 [13]: 0.00492 µM
IC50 [14]: > 0.064 µM
IC50 [15]: 0.0441 µM
IC50 [16]: > 0.064 µM
IC50 [17]: 0.0175 µM
IC50 [18]: 0.00233 µM
IC50 [19]: > 0.064 µM
IC50 [20]: > 0.064 µM
IC50 [21]: > 0.064 µM
IC50 [22]: 0.00258 µM
IC50 [23]: 0.0198 µM
IC50 [24]: 0.0456 µM
IC50 [25]: 0.0271 µM
IC50 [26]: > 0.064 µM
IC50 [27]: 0.0296 µM
IC50 [28]: 0.0357 µM
IC50 [29]: > 0.064 µM
IC50 [30]: 0.00604 µM
IC50 [31]: 0.0456 µM
IC50 [32]: 0.00506 µM
IC50 [33]: 0.0159 µM
IC50 [34]: 0.00478 µM
IC50 [35]: > 0.064 µM
IC50 [36]: > 0.064 µM
IC50 [37]: > 0.064 µM
IC50 [38]: 0.00152 µM
IC50 [39]: 0.0125 µM
IC50 [40]: 0.0155 µM
IC50 [41]: 0.0155 µM
IC50 [42]: > 0.064 µM
IC50 [43]: 0.0211 µM
IC50 [44]: 0.000232 µM
IC50 [45]: 0.00646 µM
IC50 [46]: > 0.064 µM
IC50 [47]: 0.0058 µM
IC50 [48]: 0.00187 µM
IC50 [49]: 0.0591 µM
IC50 [50]: 0.0124 µM
IC50 [51]: 0.0161 µM
IC50 [52]: > 0.064 µM

Cc1ccc(Nc2nccc(N(C)c3ccc4c(C)n(C)nc4c3)n2)cc1S(N)(=O)=O [PAZOPANIB]
IC50 [1]: > 8 µM
IC50 [2]: > 8 µM
IC50 [3]: > 8 µM
IC50 [4]: > 8 µM
IC50 [5]: > 8 µM
IC50 [6]: > 8 µM
IC50 [7]: > 8 µM
IC50 [8]: > 8 µM
IC50 [9]: > 8 µM
IC50 [10]: > 8 µM
IC50 [11]: > 8 µM
IC50 [12]: > 8 µM
IC50 [13]: > 8 µM
IC50 [14]: 0.718 µM
IC50 [15]: > 8 µM
IC50 [16]: > 8 µM
IC50 [17]: > 8 µM
IC50 [18]: 4.47 µM
IC50 [19]: > 8 µM
IC50 [20]: > 8 µM
IC50 [21]: > 8 µM
IC50 [22]: > 8 µM
IC50 [23]: > 8 µM
IC50 [24]: > 8 µM
IC50 [25]: > 8 µM
IC50 [26]: > 8 µM
IC50 [27]: 7.69 µM
IC50 [28]: > 8 µM
IC50 [29]: > 8 µM
IC50 [30]: > 8 µM
IC50 [31]: > 8 µM
IC50 [32]: > 8 µM
IC50 [33]: > 8 µM
IC50 [34]: 3.13 µM
IC50 [35]: > 8 µM
IC50 [36]: > 8 µM
IC50 [37]: > 8 µM
IC50 [38]: > 8 µM
IC50 [39]: 2.65 µM
IC50 [40]: > 8 µM
IC50 [41]: > 8 µM
IC50 [42]: > 8 µM
IC50 [43]: > 8 µM
IC50 [44]: 0.04 µM
IC50 [45]: > 8 µM
IC50 [46]: > 8 µM
IC50 [47]: > 8 µM
IC50 [48]: 5.73 µM
IC50 [49]: > 8 µM
IC50 [50]: > 8 µM
IC50 [51]: > 8 µM
IC50 [52]: > 8 µM

COC(=O)CNC(=O)C(=O)OC
IC50 [1]: 1310 µM
IC50 [2]: 122 µM
IC50 [3]: 954 µM
IC50 [4]: 2190 µM
IC50 [5]: 57.6 µM
IC50 [6]: 126 µM
IC50 [7]: 329 µM
IC50 [8]: 639 µM
IC50 [9]: 163 µM
IC50 [10]: 137 µM
IC50 [11]: 2360 µM
IC50 [12]: > 4000 µM
IC50 [13]: 603 µM
IC50 [14]: 81.6 µM
IC50 [15]: 3950 µM
IC50 [16]: 3440 µM
IC50 [17]: > 4000 µM
IC50 [18]: 277 µM
IC50 [19]: > 4000 µM
IC50 [20]: > 4000 µM
IC50 [21]: 1780 µM
IC50 [22]: 877 µM
IC50 [23]: 86 µM
IC50 [24]: 995 µM
IC50 [25]: 147 µM
IC50 [26]: 193 µM
IC50 [27]: 61.7 µM
IC50 [28]: > 4000 µM
IC50 [29]: 821 µM
IC50 [30]: 1080 µM
IC50 [31]: > 4000 µM
IC50 [32]: 1260 µM
IC50 [33]: 1890 µM
IC50 [34]: 104 µM
IC50 [35]: 1850 µM
IC50 [36]: 208 µM
IC50 [37]: 1350 µM
IC50 [38]: 2460 µM
IC50 [39]: > 4000 µM
IC50 [40]: 174 µM
IC50 [41]: 237 µM
IC50 [42]: > 4000 µM
IC50 [43]: 1860 µM
IC50 [44]: 489 µM
IC50 [45]: 629 µM
IC50 [46]: 1040 µM
IC50 [47]: 1990 µM
IC50 [48]: 398 µM
IC50 [49]: 220 µM
IC50 [50]: 947 µM
IC50 [51]: 269 µM
IC50 [52]: 3790 µM
